According to article PMC12016938, “A small molecule PKCε inhibitor reduces hyperalgesia induced by paclitaxel or opioid withdrawal” (JCI Insight, 2025):
Several values for one entry are separate records, joined by “and”; a condition that tells them apart may be missing. Identical values can stand only once. Counter-ions that a name gives are not always drawn.

System: self-administration (addictive potential)
Test: I.v. self-administration of CP612, between-session progressive ratio and demand curve
Procedure: We tested the addictive potential of CP612 by examining the extent to which rats are willing to work to obtain CP612. Rats were initially trained to self-administer either saline, morphine (500 μg/kg/i.v. infusion), or 1 of 3 different doses of CP612 (75, 150, or 300 μg/kg/i.v. infusion) for 4 days at fixed ratio 1 (FR1, where 1 nose poke delivers 1 infusion).
During the second phase, the ratio to obtain an infusion increased geometrically every other day (FR1, FR3, FR6, FR12, FR24, FR48, and FR96).
Data (number of self-infusions) were also fitted in an economic-demand curve, which provides an estimate of the motivation to obtain drugs and their addictive potential ([20]). We measured elasticity (α), which is the relative change in consumption as a function of price (i.e., ratio of nose pokes required to obtain an infusion). Behavior is considered “inelastic” when consumption is insensitive to price and “elastic” when consumption is sensitive to price. We also measured Pmax, which is the price at which intake switches from inelastic to elastic. […] (Figure 8B).
Rats not immediately anesthetized were eliminated from the study.
Following this initial acquisition phase at FR1, the ratio to obtain the drug was increased geometrically every other day: FR3 (3 nose pokes are required to obtain 1 infusion of morphine), FR6, FR12, FR24, FR48, and FR96. This allows for analysis of drug consumption as a function of “price” using demand curves for behavioral economics, which can estimate the motivation to obtain drugs and their “addictive potential” ([20]). For this, data from each rat were fitted to the equation log Q = log Q0 + k (e ^–α(Q0 ^C) – 1), where Q represents consumption (number of self-infusions), and Q0 represents the level of consumption at the lowest price. C represents price for the drug (i.e., the ratio), and k is set to a constant accounting for the estimated range of consumption in logarithmic units (k = 4 in these studies). The symbol α is the relative change in consumption across changes in price (ratio). Behavior is considered “inelastic” when consumption is insensitive to price (i.e., the curve is flat, and consumption is maintained despite increases in price), and it switches to “elastic” when consumption is sensitive to price (i.e., when the curve is steep and consumption declines with increases in price). […] We also compared groups for their average intake in the consumption-price curves by measuring α (elasticity) and Pmax.

[1] = individual rat values, drug self-administered

CN1CC[C@]23c4c5ccc(O)c4O[C@H]2[C@@H](O)C=C[C@H]3[C@H]1C5 [Morphine, Morphine sulfate, reference compound]
Responding in the active hole when the ratio to obtain an infusion increased (FR1 to FR96, CP612 75, 150, 300 or morphine 500 μg/kg/i.v. infusion): increased responding
Number of self-infusions when the ratio to obtain an infusion increased (FR1 to FR96, compared with saline): did not significantly decrease
D1 AH (FR1) [1]: 7 and 9 and 15
D1 AH (FR3) [1]: 23 and 18 and 20
D1 AH (FR6) [1]: 51 and 24 and 47
D1 AH (FR12) [1]: 97 and 70 and 72
D1 AH (FR24) [1]: 143 and 139 and 168
D1 AH (FR48) [1]: 113 and 164 and 127
D1 AH (FR96) [1]: 127 and 137 and 133
D1 IH (FR1) [1]: 1 and 12 and 2
D1 IH (FR3) [1]: 9 and 12 and 5
D1 IH (FR6) [1]: 0 and 9 and 7
D1 IH (FR12) [1]: 2 and 15 and 20
D1 IH (FR24) [1]: 7 and 9 and 20
D1 IH (FR48) [1]: 13 and 28
D1 IH (FR96) [1]: 7 and 33
D1 Inf (FR1) [1]: 6 and 7 and 10
D1 Inf (FR3) [1]: 7 and 5 and 6
D1 Inf (FR6) [1]: 8 and 4 and 7
D1 Inf (FR12) [1]: 8 and 5 and 6
D1 Inf (FR24) [1]: 5 and 6
D1 Inf (FR48) [1]: 2 and 3
D1 Inf (FR96) [1]: 1
D1 Latency (FR1) [1]: 1.5 and 1.4 and 2.3
D1 Latency (FR3) [1]: 0.38 and 0.7 and 0.267
D1 Latency (FR6) [1]: 0.2 and 0.317 and 0.6
D1 Latency (FR12) [1]: 1.6 and 0.6 and 1.7
D1 Latency (FR24) [1]: 1.3 and 0.5 and 0.26
D1 Latency (FR48) [1]: 0.367 and 0.26 and 1.1
D1 Latency (FR96) [1]: 1.0 and 1.1 and 0.7
D2 AH (FR1) [1]: 5 and 7 and 12
D2 AH (FR3) [1]: 25 and 23 and 26
D2 AH (FR6) [1]: 59 and 60 and 46
D2 AH (FR12) [1]: 118 and 94 and 104
D2 AH (FR24) [1]: 143 and 151 and 176
D2 AH (FR48) [1]: 163 and 134 and 158
D2 AH (FR96) [1]: 106 and 145 and 179
D2 IH (FR1) [1]: 8 and 6 and 2
D2 IH (FR3) [1]: 1 and 11 and 13
D2 IH (FR6) [1]: 9 and 8
D2 IH (FR12) [1]: 8 and 7
D2 IH (FR24) [1]: 11 and 7 and 20
D2 IH (FR48) [1]: 19 and 11
D2 IH (FR96) [1]: 6 and 16
D2 Inf (FR1) [1]: 5 and 6 and 9
D2 Inf (FR3) [1]: 8 and 6
D2 Inf (FR6) [1]: 8 and 9 and 7
D2 Inf (FR12) [1]: 9 and 6 and 7
D2 Inf (FR24) [1]: 5 and 6 and 7
D2 Inf (FR48) [1]: 3 and 2
D2 Inf (FR96) [1]: 1
D2 Latency (FR1) [1]: 0.458 and 1.3 and 0.3
D2 Latency (FR3) [1]: 0.25 and 0.473 and 0.4
D2 Latency (FR6) [1]: 3.2 and 1.4 and 0.647
D2 Latency (FR12) [1]: 0.127 and 0.277 and 0.753
D2 Latency (FR24) [1]: 3.0 and 1.6
D2 Latency (FR48) [1]: 0.218 and 0.3 and 0.9
D2 Latency (FR96) [1]: 0.5 and 0.28 and 1.1
D3 AH (FR1) [1]: 8 and 11 and 13
D3 IH (FR1) [1]: 3 and 5 and 0
D3 Inf (FR1) [1]: 6 and 7 and 9
D3 Latency (FR1) [1]: 0.6 and 2.1 and 0.053
D4 AH (FR1) [1]: 10 and 12 and 11
D4 IH (FR1) [1]: 0 and 4 and 2
D4 Inf (FR1) [1]: 7 and 9
D4 Latency (FR1) [1]: 0.13 and 0.6 and 0.632
last AH (FR1) [1]: 7 and 8 and 14
last IH (FR1) [1]: 3 and 2 and 4
last Inf (FR1) [1]: 6
last Latency (FR1) [1]: 0.34 and 0.452 and 0.9
last-1 AH (FR1) [1]: 10 and 12 and 11
last-1 IH (FR1) [1]: 0 and 4 and 2
last-1 Inf (FR1) [1]: 7 and 9
last-1 Latency (FR1) [1]: 0.13 and 0.6 and 0.632
last-2 AH (FR1) [1]: 8 and 11 and 13
last-2 IH (FR1) [1]: 3 and 5 and 0
last-2 Inf (FR1) [1]: 6 and 7 and 9
last-2 Latency (FR1) [1]: 0.6 and 2.1 and 0.053
last-3 AH (FR1) [1]: 5 and 7 and 12
last-3 IH (FR1) [1]: 8 and 6 and 2
last-3 Inf (FR1) [1]: 5 and 6 and 9
last-3 Latency (FR1) [1]: 0.458 and 1.3 and 0.3
Pmax (price at which intake switches from inelastic to elastic) (morphine 500 μg/kg/i.v. infusion): 50.1
AVG AH (FR3) (morphine, individual rats): 43.5 and 29.0 and 31.0 and 18.0 and 18.5 and 24.0
AVG AH (FR6) (morphine, individual rats): 43.5 and 53.5 and 45.5 and 38.5 and 31.0 and 21.0
AVG AH (FR12) (morphine, individual rats): 62.0 and 88.0 and 64.5 and 104.0 and 39.0 and 41.5
AVG AH (FR24) (morphine, individual rats): 164.5 and 149.5 and 79.5 and 187.0 and 122.5 and 61.0
AVG AH (FR48) (morphine, individual rats): 232.5 and 252.5 and 73.5 and 255.0 and 135.0 and 63.0
AVG AH (FR96) (morphine, individual rats): 203.5 and 351.0 and 57.0 and 198.0 and 210.5 and 36.0
AVG IH (FR1_D1 to D4) (morphine, individual rats): 10.3 and 8.8 and 13.3 and 5.3 and 14.8 and 7.0
AVG IH (FR1_Last 2 FR1 days) (morphine, individual rats): 3.5 and 3.0 and 5.5 and 5.0 and 6.5 and 9.0
AVG IH (FR1_Last 4 FR1 days) (morphine, individual rats): 10.8 and 3.5 and 9.5 and 4.8 and 11.0 and 7.5
AVG IH (FR3) (morphine, individual rats): 10.0 and 7.5 and 8.5 and 8.0 and 15.0 and 9.0
AVG IH (FR6) (morphine, individual rats): 6.5 and 7.0 and 9.0 and 7.5 and 13.5 and 11.0
AVG IH (FR12) (morphine, individual rats): 11.0 and 9.5 and 19.0 and 5.0 and 6.0 and 4.0
AVG IH (FR24) (morphine, individual rats): 11.0 and 10.0 and 15.0 and 7.5 and 8.5
AVG IH (FR48) (morphine, individual rats): 8.5 and 13.5 and 12.0 and 18.0 and 9.5 and 13.0
AVG IH (FR96) (morphine, individual rats): 8.5 and 18.5 and 13.5 and 14.5 and 26.0
AVG Inf (FR1_D1 to D4) (morphine, individual rats): 10.8 and 9.3 and 8.0 and 12.0 and 9.5 and 10.0
AVG Inf (FR1_Last 2 FR1 days) (morphine, individual rats): 14.0 and 10.0 and 11.0 and 9.0 and 7.5
AVG Inf (FR1_Last 4 FR1 days) (morphine, individual rats): 12.0 and 10.0 and 9.0 and 13.3 and 9.5 and 9.3
AVG Inf (FR3) (morphine, individual rats): 10.5 and 8.5 and 9.5 and 5.0 and 4.5
AVG Inf (FR6) (morphine, individual rats): 7.0 and 7.5 and 6.0 and 4.0 and 3.0
AVG Inf (FR12) (morphine, individual rats): 5.0 and 6.0 and 4.5 and 8.0 and 3.0
AVG Inf (FR24) (morphine, individual rats): 6.0 and 5.5 and 3.0 and 7.5 and 4.0 and 2.0
AVG Inf (FR48) (morphine, individual rats): 4.5 and 5.0 and 1.0 and 2.0
AVG Inf (FR96) (morphine, individual rats): 1.5 and 3.0 and 0.0
AVG Latency (FR1_D1 to D4) (morphine, individual rats): 2.4 and 4.0 and 9.8 and 1.3 and 2.0 and 1.1
AVG Latency (FR1_Last 2 FR1 days) (morphine, individual rats): 0.271 and 0.4 and 3.0 and 0.18 and 0.74 and 1.1
AVG Latency (FR1_Last 4 FR1 days) (morphine, individual rats): 0.3 and 0.277 and 3.8 and 0.6 and 1.1
